Common to all, as to type: functional
Assay [1] relates to Mycobacterium tuberculosis. Nature of the assay: Antimycobacterial activity against Mycobacterium tuberculosis H37Rv at 0.0118 uM.
Assay [2] relates to Mycobacterium tuberculosis. Nature of the assay: Antimycobacterial activity against Mycobacterium tuberculosis H37Rv.
The test system of assay [3] is Mycobacterium tuberculosis. Briefly: Antimycobacterial activity against Mycobacterium tuberculosis H37Rv at 0.0164 uM.
The test system of assay [4] is Mycobacterium tuberculosis. Nature of the assay: Antimycobacterial activity against Mycobacterium tuberculosis H37Rv at 0.0202 uM.
The subject of assay [5] is Mycobacterium tuberculosis. Briefly: Antimycobacterial activity against Mycobacterium tuberculosis H37Rv at 0.2080 uM.
Assay [6] relates to Mycobacterium tuberculosis. Nature of the assay: Antimycobacterial activity against Mycobacterium tuberculosis H37Rv at 0.0201 uM.
Assay [7] has as its system Mycobacterium tuberculosis. Nature of the assay: Antimycobacterial activity against Mycobacterium tuberculosis H37Rv at 0.1706 uM.
The test system of assay [8] is Mycobacterium tuberculosis. Nature of the assay: Antimycobacterial activity against Mycobacterium tuberculosis H37Rv at 0.0138 uM.
Assay [9] concerns Mycobacterium tuberculosis. Nature of the assay: Antimycobacterial activity against Mycobacterium tuberculosis H37Rv at 0.0140 uM.
Assay [10] has as its system Mycobacterium tuberculosis. Briefly: Antimycobacterial activity against Mycobacterium tuberculosis H37Rv at 0.0354 uM.
In assay [11] the test system is Mycobacterium tuberculosis. Nature of the assay: Antimycobacterial activity against Mycobacterium tuberculosis H37Rv at 0.0135 uM.
Assay [12] relates to Mycobacterium tuberculosis. Briefly: Antimycobacterial activity against Mycobacterium tuberculosis H37Rv at 0.0149 uM.
For assay [13], the system named is Mycobacterium tuberculosis. Nature of the assay: Antimycobacterial activity against Mycobacterium tuberculosis H37Rv at 0.0977 uM.
In assay [14] the test system is Mycobacterium tuberculosis. Nature of the assay: Antimycobacterial activity against Mycobacterium tuberculosis H37Rv at 0.0148 uM.
Assay [15] relates to Mycobacterium tuberculosis. Briefly: Antimycobacterial activity against Mycobacterium tuberculosis H37Rv at 0.0143 uM.
Assay [16] deals with Mycobacterium tuberculosis. Briefly: Antimycobacterial activity against Mycobacterium tuberculosis H37Rv at 0.0132 uM.
Assay [17] deals with Mycobacterium tuberculosis. Briefly: Antimycobacterial activity against Mycobacterium tuberculosis H37Rv at 0.0092 uM.
The test system of assay [18] is Mycobacterium tuberculosis. Nature of the assay: Antimycobacterial activity against Mycobacterium tuberculosis H37Rv at 0.0034 uM.
Assay [19] has as its system Mycobacterium tuberculosis. Nature of the assay: Antimycobacterial activity against Mycobacterium tuberculosis H37Rv at 0.1467 uM.
For assay [20], the system named is Mycobacterium tuberculosis. Nature of the assay: Antimycobacterial activity against Mycobacterium tuberculosis H37Rv at 0.0150 uM.
The subject of assay [21] is Mycobacterium tuberculosis. Nature of the assay: Antimycobacterial activity against Mycobacterium tuberculosis H37Rv at 0.0084 uM.
Assay [22] has as its system Mycobacterium tuberculosis. Briefly: Antimycobacterial activity against Mycobacterium tuberculosis H37Rv at 0.0403 uM.

Each structure is given as a SMILES string. ≈ marks a conversion by molar mass, not a printed value.

What is called inhibition is the change of the read-out against control, counted positive when it falls. A higher inhibition goes with a response far below the control. For orientation: MIC means the lowest concentration found to suppress growth. In assay [1], `COc1ccccc1NC(=S)N1N=C(c2ccc(O)c(C)c2)CC1c1ccc(OC)c(OC)c1` (stereo not given) gave an inhibition at 0.0118 µM of 88%. In assay [2], this molecule came in with an MIC of 5.67 µg/mL (≈ 11.9 µM).

In assay [3], `COc1ccccc1NC(=S)N1N=C(c2ccc(O)c(C)c2)CC1c1ccc(F)cc1` (stereo not given) showed an inhibition at 0.0164 µM of 16%.

Molecule `COc1ccccc1NC(=S)N1N=C(c2ccc(O)c(C)c2)CC1c1ccccc1Cl` (stereo not given) had an inhibition at 0.0202 µM in assay [4] of 44%.

As to `COc1ccccc1NC(=S)N1N=C(c2ccc(O)c(C)c2)CC1c1cccc([N+](=O)[O-])c1` (stereo not given), in assay [5], testing at 0.208 µM gave an inhibition of 8%.

Consider `COc1ccccc1NC(=S)N1N=C(c2ccc(O)c(C)c2)CC1Cc1ccco1` (stereo not given), for which the inhibition at 0.0201 µM in [6] worked out at 18%.

In assay [7], `Cc1cc(C2=NN(C(=S)Nc3ccccc3C)C(Cc3ccco3)C2)ccc1O` (stereo not given) displayed an inhibition at 0.1706 µM of 26%.

As to `COc1ccccc1NC(=S)N1N=C(c2ccc(O)c(C)c2)CC1c1ccc(Cl)cc1` (stereo not given), at 0.0138 µM the inhibition in assay [8] was 4%. The molecule further displayed an MIC in assay [2] of 6.25 µg/mL (≈ 13.8 µM).

`Cc1cc(C2=NN(C(=S)Nc3ccccc3C)C(c3ccc(N(C)C)cc3)C2)ccc1O` (stereo not given) showed an inhibition at 0.014 µM in assay [9] of 12%. Further, it took 6.25 µg/mL (≈ 14.1 µM) to inhibit growth in assay [2] (MIC).

Turning to `Cc1cc(C2=NN(C(=S)Nc3ccccc3C)C(c3ccccc3)C2)ccc1O` (stereo not given), 0.0354 µM produced 29% inhibition in assay [10].

For `COc1ccccc1NC(=S)N1N=C(c2ccc(O)c(C)c2)CC1c1ccc(N(C)C)cc1` (stereo not given), in assay [11], the inhibition at 0.0135 µM was 28%. The same molecule returned an MIC in assay [2] of 6.25 µg/mL (≈ 13.6 µM).

In assay [12], `COc1ccccc1NC(=S)N1N=C(c2ccc(O)c(C)c2)CC1c1ccccc1` (stereo not given) displayed an inhibition at 0.0149 µM of 6%. This molecule also registered an MIC in assay [2] of 6.25 µg/mL (≈ 15 µM).

In assay [13], `COc1ccc(C2CC(c3ccc(O)c(C)c3)=NN2C(=S)Nc2ccccc2C)cc1OC` (stereo not given) showed an inhibition at 0.0977 µM of 72%.

As to `Cc1cc(C2=NN(C(=S)Nc3ccccc3C)C(c3ccc(F)cc3)C2)ccc1O` (stereo not given), in assay [14], 0.0148 µM produced 32% inhibition. The molecule further had an MIC in assay [2] of 6.25 µg/mL (≈ 14.9 µM).

The molecule `Cc1cc(C2=NN(C(=S)Nc3ccccc3C)C(c3c(Cl)cccc3Cl)C2)ccc1O` (stereo not given) yielded an inhibition at 0.0143 µM in [15] of 21%. The lowest concentration to inhibit growth in assay [2] (MIC) was 6.25 µg/mL (≈ 13.3 µM).

Regarding `Cc1cc(C2=NN(C(=S)Nc3ccccc3C)C(c3cccc([N+](=O)[O-])c3)C2)ccc1O` (stereo not given), the inhibition at 0.0132 µM in assay [16] was 14%. The same molecule gave an MIC in assay [2] of 6.25 µg/mL (≈ 14 µM).

For the molecule `COc1ccc(C2CC(c3ccc(O)c(C)c3)=NN2C(=S)Nc2ccccc2OC)cc1` (stereo not given), the inhibition at 0.0092 µM in assay [17] is 94%. Further, in assay [2], the MIC amounted to 4.12 µg/mL (≈ 9.21 µM).

Turning to `COc1ccccc1NC(=S)N1N=C(c2ccc(O)c(C)c2)CC1c1c(Cl)cccc1Cl` (stereo not given), at 0.0034 µM the inhibition in assay [18] was 98%. In [2], this molecule gave an MIC of 1.66 µg/mL (≈ 3.41 µM).

In assay [19], `COc1cc(C2CC(c3ccc(O)c(C)c3)=NN2C(=S)Nc2ccccc2C)cc(OC)c1OC` (stereo not given) came in with an inhibition at 0.1467 µM of 44%.

On to `Cc1cc(C2=NN(C(=S)Nc3ccccc3C)C(c3ccccc3Cl)C2)ccc1O` (stereo not given), for which testing at 0.015 µM in assay [20] gave an inhibition of 33%. In assay [2], this molecule showed an MIC of 6.25 µg/mL (≈ 14.3 µM).

Regarding `COc1ccccc1NC(=S)N1N=C(c2ccc(O)c(C)c2)CC1c1cc(OC)c(OC)c(OC)c1` (stereo not given), in [21], the inhibition at 0.0084 µM was 92%.

`Cc1cc(C2=NN(C(=S)Nc3ccccc3C)C(c3ccc(Cl)cc3)C2)ccc1O` (stereo not given) came in with an inhibition at 0.0143 µM in assay [15] of 44%. For the same molecule, the lowest concentration to inhibit growth in assay [2] (MIC) was 6.25 µg/mL (≈ 14.3 µM).

As for `COc1ccc(C2CC(c3ccc(O)c(C)c3)=NN2C(=S)Nc2ccccc2C)cc1` (stereo not given), the inhibition at 0.0403 µM in [22] was 6%.

`NNC(=O)c1ccncc1` [ISONIAZID] displayed an MIC in [2] of 0.025 µg/mL (≈ 0.182 µM).

(Values after ChEMBL document CHEMBL1142873, “Synthesis, structural activity relationship and anti-tubercular activity of novel pyrazoline derivatives” (2007).)
